Reference: the kinase profiling compilation of Christmann-Franck et al. (2016)

How the values were obtained:
Assay in all cases: radiometric filter-binding kinase assay
[1] = test system: AKT2 (human), P31751 [S474D]
AURKA (human) = AURKA (human) (UniProt O14965)
AURKB (human) = AURKB (human) (UniProt Q96GD4)
CHEK1 (human) = CHEK1 (human) (UniProt O14757)
CSNK1D (human) = CSNK1D (human) (UniProt P48730)
EEF2K (human) = EEF2K (human) (UniProt O00418)
EPHB1 (human) = EPHB1 (human) (UniProt P54762)
EPHB1 (human), sequence (P54762 whole entry, looked up): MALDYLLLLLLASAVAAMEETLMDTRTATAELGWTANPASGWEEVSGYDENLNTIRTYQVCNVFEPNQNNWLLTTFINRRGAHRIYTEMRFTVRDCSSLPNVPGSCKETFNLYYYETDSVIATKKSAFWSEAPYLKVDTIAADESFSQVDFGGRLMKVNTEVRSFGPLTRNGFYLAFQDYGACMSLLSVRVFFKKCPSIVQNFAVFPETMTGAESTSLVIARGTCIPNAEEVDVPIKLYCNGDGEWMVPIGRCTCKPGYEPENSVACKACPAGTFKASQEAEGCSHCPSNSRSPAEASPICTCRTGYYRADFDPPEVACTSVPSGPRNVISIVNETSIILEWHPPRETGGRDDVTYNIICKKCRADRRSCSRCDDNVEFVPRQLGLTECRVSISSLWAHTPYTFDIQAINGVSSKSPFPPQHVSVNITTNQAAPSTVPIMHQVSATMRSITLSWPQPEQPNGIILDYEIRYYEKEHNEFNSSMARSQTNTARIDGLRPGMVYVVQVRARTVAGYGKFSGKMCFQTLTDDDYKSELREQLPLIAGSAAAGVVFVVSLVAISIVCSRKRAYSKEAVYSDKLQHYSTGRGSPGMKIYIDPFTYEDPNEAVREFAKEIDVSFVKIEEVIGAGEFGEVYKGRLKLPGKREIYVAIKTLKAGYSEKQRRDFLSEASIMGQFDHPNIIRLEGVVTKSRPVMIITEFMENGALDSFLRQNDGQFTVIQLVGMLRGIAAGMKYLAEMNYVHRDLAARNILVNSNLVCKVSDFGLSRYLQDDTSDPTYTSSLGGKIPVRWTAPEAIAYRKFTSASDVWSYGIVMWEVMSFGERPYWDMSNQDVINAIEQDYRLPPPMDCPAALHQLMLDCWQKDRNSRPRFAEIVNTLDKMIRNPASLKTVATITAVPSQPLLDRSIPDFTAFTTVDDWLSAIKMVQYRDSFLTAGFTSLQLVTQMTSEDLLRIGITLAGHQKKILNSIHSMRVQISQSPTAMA

EPHB4 (human) = EPHB4 (human) (UniProt P54760)
FGFR1 (human) = FGFR1 (human) (UniProt P11362)
FLT1 (human) = FLT1 (human) (UniProt P17948)
GCK (human) = GCK (human) (UniProt Q12851)
GSK3B (human) = GSK3B (human) (UniProt P49841)
HIPK1 (human) = HIPK1 (human) (UniProt Q86Z02)
HIPK1 (human), sequence (Q86Z02 whole entry, looked up): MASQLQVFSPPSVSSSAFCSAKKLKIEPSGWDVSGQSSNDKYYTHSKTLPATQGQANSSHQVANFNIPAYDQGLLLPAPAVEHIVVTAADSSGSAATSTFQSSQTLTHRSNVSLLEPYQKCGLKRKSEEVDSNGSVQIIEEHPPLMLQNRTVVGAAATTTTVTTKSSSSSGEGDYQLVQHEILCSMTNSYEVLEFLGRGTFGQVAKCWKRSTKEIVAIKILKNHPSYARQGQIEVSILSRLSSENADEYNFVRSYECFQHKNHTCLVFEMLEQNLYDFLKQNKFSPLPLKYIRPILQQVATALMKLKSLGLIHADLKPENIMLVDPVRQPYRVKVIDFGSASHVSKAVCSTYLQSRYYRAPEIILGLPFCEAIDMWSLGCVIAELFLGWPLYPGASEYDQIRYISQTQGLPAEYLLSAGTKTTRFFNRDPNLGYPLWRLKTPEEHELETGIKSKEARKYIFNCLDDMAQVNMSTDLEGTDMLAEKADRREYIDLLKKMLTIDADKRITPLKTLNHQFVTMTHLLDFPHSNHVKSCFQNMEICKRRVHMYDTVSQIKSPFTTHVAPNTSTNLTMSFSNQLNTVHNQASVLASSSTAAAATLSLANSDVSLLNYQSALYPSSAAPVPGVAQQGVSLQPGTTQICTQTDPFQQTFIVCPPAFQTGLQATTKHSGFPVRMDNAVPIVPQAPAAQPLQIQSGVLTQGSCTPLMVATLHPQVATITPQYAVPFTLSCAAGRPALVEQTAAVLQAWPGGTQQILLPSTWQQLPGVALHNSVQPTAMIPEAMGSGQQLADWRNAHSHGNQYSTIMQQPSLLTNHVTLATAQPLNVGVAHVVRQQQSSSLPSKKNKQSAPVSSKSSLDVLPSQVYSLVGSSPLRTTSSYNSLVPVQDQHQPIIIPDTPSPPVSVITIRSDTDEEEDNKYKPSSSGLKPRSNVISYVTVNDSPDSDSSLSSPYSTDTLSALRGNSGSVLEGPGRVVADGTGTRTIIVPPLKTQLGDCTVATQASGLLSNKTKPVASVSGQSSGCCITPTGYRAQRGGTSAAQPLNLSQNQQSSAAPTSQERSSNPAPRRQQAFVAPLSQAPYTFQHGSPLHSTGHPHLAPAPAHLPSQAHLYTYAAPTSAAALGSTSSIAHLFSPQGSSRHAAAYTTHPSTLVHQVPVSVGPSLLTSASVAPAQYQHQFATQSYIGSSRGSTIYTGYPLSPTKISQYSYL

HIPK2 (human) = HIPK2 (human) (UniProt Q9H2X6)
IGF1R (human) = IGF1R (human) (UniProt P08069)
MAP2K2 (human) = MAP2K2 (human) (UniProt P36507)
MAP3K1 (human) = MAP3K1 (human) (UniProt Q13233)
MAP3K5 (human) = MAP3K5 (human) (UniProt Q99683)
MAP3K9 (human) = MAP3K9 (human) (UniProt P80192)
MAPK1 (human) = MAPK1 (human) (UniProt P28482)
MAPK10 (human) = MAPK10 (human) (UniProt P53779)
MAPK13 (human) = MAPK13 (human) (UniProt O15264)
MAPK13 (human), sequence (O15264 whole entry, looked up): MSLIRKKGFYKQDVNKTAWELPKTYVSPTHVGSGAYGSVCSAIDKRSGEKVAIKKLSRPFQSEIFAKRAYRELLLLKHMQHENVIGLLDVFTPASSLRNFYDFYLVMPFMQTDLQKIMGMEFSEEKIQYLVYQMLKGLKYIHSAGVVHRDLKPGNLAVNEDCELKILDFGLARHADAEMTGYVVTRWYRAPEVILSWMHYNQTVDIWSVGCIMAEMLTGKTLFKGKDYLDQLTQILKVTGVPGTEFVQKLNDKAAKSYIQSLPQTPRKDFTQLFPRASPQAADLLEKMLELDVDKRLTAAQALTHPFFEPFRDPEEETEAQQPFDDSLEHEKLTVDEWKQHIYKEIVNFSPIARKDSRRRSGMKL

MAPK9 (human) = MAPK9 (human) (UniProt P45984)
MARK4 (human) = MARK4 (human) (UniProt Q96L34)
MELK (human) = MELK (human) (UniProt Q14680)
MYLK (human) = MYLK (human) (UniProt Q15746)
MYLK (human), sequence (Q15746 whole entry, looked up): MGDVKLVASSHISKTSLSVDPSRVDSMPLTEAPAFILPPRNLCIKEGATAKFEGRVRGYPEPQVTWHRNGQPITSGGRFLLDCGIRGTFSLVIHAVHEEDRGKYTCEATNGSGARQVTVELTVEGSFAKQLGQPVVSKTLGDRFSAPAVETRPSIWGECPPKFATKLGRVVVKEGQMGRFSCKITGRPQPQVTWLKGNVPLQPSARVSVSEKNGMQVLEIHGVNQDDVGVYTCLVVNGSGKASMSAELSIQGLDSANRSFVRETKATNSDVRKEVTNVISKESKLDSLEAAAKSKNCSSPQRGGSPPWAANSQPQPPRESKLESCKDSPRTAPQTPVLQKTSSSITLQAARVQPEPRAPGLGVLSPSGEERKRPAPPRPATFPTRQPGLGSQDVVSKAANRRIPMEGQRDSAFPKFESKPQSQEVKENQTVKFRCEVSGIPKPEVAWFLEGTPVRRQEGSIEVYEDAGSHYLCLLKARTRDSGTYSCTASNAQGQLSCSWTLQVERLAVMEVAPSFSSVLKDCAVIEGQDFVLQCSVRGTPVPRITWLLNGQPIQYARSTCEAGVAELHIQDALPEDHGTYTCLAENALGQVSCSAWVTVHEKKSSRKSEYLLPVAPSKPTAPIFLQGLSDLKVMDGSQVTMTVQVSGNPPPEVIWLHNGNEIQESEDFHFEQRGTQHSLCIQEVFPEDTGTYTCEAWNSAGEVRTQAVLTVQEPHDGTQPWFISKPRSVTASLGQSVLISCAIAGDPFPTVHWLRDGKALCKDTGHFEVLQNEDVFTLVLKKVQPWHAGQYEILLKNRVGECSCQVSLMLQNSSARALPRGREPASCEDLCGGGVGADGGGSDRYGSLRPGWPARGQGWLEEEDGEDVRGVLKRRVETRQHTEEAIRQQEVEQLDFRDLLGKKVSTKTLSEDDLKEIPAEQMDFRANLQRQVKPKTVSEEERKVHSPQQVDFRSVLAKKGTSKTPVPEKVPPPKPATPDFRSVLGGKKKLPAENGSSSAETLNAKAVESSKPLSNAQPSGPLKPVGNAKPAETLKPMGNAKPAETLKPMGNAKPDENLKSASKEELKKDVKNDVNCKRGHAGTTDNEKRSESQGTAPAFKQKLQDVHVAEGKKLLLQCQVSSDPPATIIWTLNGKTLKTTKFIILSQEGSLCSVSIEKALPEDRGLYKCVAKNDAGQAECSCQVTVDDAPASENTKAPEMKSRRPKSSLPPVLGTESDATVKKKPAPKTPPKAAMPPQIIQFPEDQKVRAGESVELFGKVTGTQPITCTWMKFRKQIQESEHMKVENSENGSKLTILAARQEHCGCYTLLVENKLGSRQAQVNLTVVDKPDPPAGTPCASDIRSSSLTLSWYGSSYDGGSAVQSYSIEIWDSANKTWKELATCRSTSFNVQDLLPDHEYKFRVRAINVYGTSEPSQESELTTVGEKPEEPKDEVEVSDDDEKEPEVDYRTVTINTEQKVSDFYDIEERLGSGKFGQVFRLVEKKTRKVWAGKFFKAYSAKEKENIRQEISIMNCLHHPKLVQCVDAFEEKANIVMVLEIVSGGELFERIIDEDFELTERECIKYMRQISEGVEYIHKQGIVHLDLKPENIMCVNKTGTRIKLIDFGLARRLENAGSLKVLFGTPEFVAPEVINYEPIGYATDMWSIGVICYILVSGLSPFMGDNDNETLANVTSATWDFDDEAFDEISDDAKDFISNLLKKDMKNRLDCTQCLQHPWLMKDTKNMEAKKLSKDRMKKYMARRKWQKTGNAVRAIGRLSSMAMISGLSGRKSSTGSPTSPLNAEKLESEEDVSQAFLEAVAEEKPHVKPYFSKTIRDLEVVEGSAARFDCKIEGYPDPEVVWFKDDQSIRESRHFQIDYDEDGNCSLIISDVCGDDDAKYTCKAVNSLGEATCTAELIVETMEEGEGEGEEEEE

[2] = test system: PAK2 (human), Q13177 [T402E]
PAK6 (human) = PAK6 (human) (UniProt Q9NQU5)
PKN2 (human) = PKN2 (human) (UniProt Q16513); conditions: compound 0.01 µM
PRKCZ (human) = PRKCZ (human) (UniProt Q05513)
SRC (human) = SRC (human) (UniProt P12931)
[3] = molecular target: STK11 CAB39 STRADA (human) (UniProt Q9Y376+Q7RTN6+Q15831)
SYK (human) = SYK (human) (UniProt P43405)
TAOK1 (human) = TAOK1 (human) (UniProt Q7L7X3)
TTK (human) = TTK (human) (UniProt P33981)
YES1 (human) = YES1 (human) (UniProt P07947)

CHEK1 (human), sequence (O14757 whole entry, looked up): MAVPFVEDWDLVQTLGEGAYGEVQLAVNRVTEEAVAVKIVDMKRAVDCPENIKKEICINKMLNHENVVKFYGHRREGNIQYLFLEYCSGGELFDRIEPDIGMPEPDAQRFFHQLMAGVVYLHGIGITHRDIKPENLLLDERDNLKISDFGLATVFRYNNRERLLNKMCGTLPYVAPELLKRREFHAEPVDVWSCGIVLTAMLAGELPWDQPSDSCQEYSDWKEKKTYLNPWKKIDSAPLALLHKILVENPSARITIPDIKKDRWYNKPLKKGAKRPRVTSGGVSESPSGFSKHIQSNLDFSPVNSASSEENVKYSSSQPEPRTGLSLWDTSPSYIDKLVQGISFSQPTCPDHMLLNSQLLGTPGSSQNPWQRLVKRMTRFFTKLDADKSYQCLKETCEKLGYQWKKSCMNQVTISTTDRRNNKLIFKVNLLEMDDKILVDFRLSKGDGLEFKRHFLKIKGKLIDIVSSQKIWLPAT

COc1cc(O)c2c(c1)[C@H]1OC1C[C@H](O)[C@H](O)C(=O)/C=C\C[C@H](C)OC2=O (stereo partly specified)
residual activity ([1]; compound 0.01 µM): 105% | residual activity ([1]; compound 0.1 µM): 103% | residual activity (AURKA (human); compound 0.01 µM): 106% | residual activity (AURKA (human); compound 0.1 µM): 103% | residual activity (AURKA (human); compound 1.0 µM): 108% | residual activity (AURKB (human); compound 0.01 µM): 90% | residual activity (AURKB (human); compound 0.1 µM): 92% | residual activity (AURKB (human); compound 1.0 µM): 107% | residual activity (CHEK1 (human); compound 0.01 µM): 93% | residual activity (CHEK1 (human); compound 0.1 µM): 93% | residual activity (CHEK1 (human); compound 1.0 µM): 94% | residual activity (CSNK1D (human); compound 0.01 µM): 116% | residual activity (CSNK1D (human); compound 0.1 µM): 101% | residual activity (EEF2K (human); compound 0.01 µM): 91% | residual activity (EEF2K (human); compound 0.1 µM): 103% | residual activity (EPHB1 (human); compound 0.01 µM): 97% | residual activity (EPHB1 (human); compound 0.1 µM): 110% | residual activity (EPHB1 (human); compound 1.0 µM): 84% | residual activity (EPHB4 (human); compound 0.01 µM): 109% | residual activity (EPHB4 (human); compound 0.1 µM): 116% | residual activity (FGFR1 (human); compound 0.01 µM): 118% | residual activity (FGFR1 (human); compound 0.1 µM): 154% | residual activity (FLT1 (human); compound 0.01 µM): 65% | residual activity (FLT1 (human); compound 0.1 µM): 5% | residual activity (FLT1 (human); compound 1.0 µM): 3% | residual activity (GCK (human); compound 0.01 µM): 114% | residual activity (GCK (human); compound 0.1 µM): 105% | residual activity (GCK (human); compound 1.0 µM): 97% | residual activity (GSK3B (human); compound 0.01 µM): 91% | residual activity (GSK3B (human); compound 0.1 µM): 106% | residual activity (HIPK1 (human); compound 0.01 µM): 111% | residual activity (HIPK1 (human); compound 0.1 µM): 99% | residual activity (HIPK1 (human); compound 1.0 µM): 95% | residual activity (HIPK2 (human); compound 0.01 µM): 96% | residual activity (HIPK2 (human); compound 0.1 µM): 86% | residual activity (HIPK2 (human); compound 1.0 µM): 72% | residual activity (IGF1R (human); compound 0.01 µM): 103% | residual activity (IGF1R (human); compound 0.1 µM): 100% | residual activity (MAP2K2 (human); compound 0.01 µM): 74% | residual activity (MAP2K2 (human); compound 0.1 µM): 21% | residual activity (MAP2K2 (human); compound 1.0 µM): 9% | residual activity (MAP3K1 (human); compound 0.01 µM): 112% | residual activity (MAP3K1 (human); compound 0.1 µM): 101% | residual activity (MAP3K1 (human); compound 1.0 µM): 102% | residual activity (MAP3K5 (human); compound 0.01 µM): 105% | residual activity (MAP3K5 (human); compound 0.1 µM): 103% | residual activity (MAP3K5 (human); compound 1.0 µM): 109% | residual activity (MAP3K9 (human); compound 0.01 µM): 112% | residual activity (MAP3K9 (human); compound 0.1 µM): 117% | residual activity (MAP3K9 (human); compound 1.0 µM): 101% | residual activity (MAPK1 (human); compound 0.01 µM): 96% | residual activity (MAPK1 (human); compound 0.1 µM): 87% | residual activity (MAPK1 (human); compound 1.0 µM): 36% | residual activity (MAPK10 (human); compound 0.01 µM): 89% | residual activity (MAPK10 (human); compound 0.1 µM): 101% | residual activity (MAPK10 (human); compound 1.0 µM): 107% | residual activity (MAPK13 (human); compound 0.01 µM): 101% | residual activity (MAPK13 (human); compound 0.1 µM): 100% | residual activity (MAPK13 (human); compound 1.0 µM): 108% | residual activity (MAPK9 (human); compound 0.01 µM): 105% | residual activity (MAPK9 (human); compound 0.1 µM): 106% | residual activity (MAPK9 (human); compound 1.0 µM): 99% | residual activity (MARK4 (human); compound 0.01 µM): 103% | residual activity (MARK4 (human); compound 0.1 µM): 99% | residual activity (MELK (human); compound 0.01 µM): 92% | residual activity (MELK (human); compound 0.1 µM): 100% | residual activity (MELK (human); compound 1.0 µM): 104% | residual activity (MYLK (human); compound 0.01 µM): 108% | residual activity (MYLK (human); compound 0.1 µM): 102% | residual activity (MYLK (human); compound 1.0 µM): 96% | residual activity ([2]; compound 0.01 µM): 99% | residual activity ([2]; compound 0.1 µM): 94% | residual activity ([2]; compound 1.0 µM): 95% | residual activity (PAK6 (human); compound 0.01 µM): 92% | residual activity (PAK6 (human); compound 0.1 µM): 95% | residual activity (PAK6 (human); compound 1.0 µM): 95% | residual activity (PKN2 (human)): 93% | residual activity (PRKCZ (human); compound 0.01 µM): 97% | residual activity (PRKCZ (human); compound 0.1 µM): 78% | residual activity (PRKCZ (human); compound 1.0 µM): 105% | residual activity (SRC (human); compound 0.01 µM): 96% | residual activity (SRC (human); compound 0.1 µM): 91% | residual activity (SRC (human); compound 1.0 µM): 86% | residual activity ([3]; compound 0.01 µM): 119% | residual activity ([3]; compound 0.1 µM): 120% | residual activity ([3]; compound 1.0 µM): 104% | residual activity (SYK (human); compound 0.1 µM): 108% | residual activity (SYK (human); compound 1.0 µM): 85% | residual activity (TAOK1 (human); compound 0.01 µM): 106% | residual activity (TAOK1 (human); compound 0.1 µM): 101% | residual activity (TAOK1 (human); compound 1.0 µM): 100% | residual activity (TTK (human); compound 0.01 µM): 101% | residual activity (TTK (human); compound 0.1 µM): 95% | residual activity (TTK (human); compound 1.0 µM): 101% | residual activity (YES1 (human); compound 0.01 µM): 87% | residual activity (YES1 (human); compound 0.1 µM): 85%
